Assay results: BindingDB's records for doi:10.7270/Q2R78CQV (Burnham Center For Chemical Genomics, 2011)

The compounds below were run against Hexokinase HKDC1 [W721R] (Homo sapiens, UniProt Q2TB90, W721R) (assay: HKDC1 hexokinase activators, dose response, biochemical, W721R variant (AID 504730)).
Sequence of Hexokinase HKDC1 [W721R] (Q2TB90 whole entry W721R): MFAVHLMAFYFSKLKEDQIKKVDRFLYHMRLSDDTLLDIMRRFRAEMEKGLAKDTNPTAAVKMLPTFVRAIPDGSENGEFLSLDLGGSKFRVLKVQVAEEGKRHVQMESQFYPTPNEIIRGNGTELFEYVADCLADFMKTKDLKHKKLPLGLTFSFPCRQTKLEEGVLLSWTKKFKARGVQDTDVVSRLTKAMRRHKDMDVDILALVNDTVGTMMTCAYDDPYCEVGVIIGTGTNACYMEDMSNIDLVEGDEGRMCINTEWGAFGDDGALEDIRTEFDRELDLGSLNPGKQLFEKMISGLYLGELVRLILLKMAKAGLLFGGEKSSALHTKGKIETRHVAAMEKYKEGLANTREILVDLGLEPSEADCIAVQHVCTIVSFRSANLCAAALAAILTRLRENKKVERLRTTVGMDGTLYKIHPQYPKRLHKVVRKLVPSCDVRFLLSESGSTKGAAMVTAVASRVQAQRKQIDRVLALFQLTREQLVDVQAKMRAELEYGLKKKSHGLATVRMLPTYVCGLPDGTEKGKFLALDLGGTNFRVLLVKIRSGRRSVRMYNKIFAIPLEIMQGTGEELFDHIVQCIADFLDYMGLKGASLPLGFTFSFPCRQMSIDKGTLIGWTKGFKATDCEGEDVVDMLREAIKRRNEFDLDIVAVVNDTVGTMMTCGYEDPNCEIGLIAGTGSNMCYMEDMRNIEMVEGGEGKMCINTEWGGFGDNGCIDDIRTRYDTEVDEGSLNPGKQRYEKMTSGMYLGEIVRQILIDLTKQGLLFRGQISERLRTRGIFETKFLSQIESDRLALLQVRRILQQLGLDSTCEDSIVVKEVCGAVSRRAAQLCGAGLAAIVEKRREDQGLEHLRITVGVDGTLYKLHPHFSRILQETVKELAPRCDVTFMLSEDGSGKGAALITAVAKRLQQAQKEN

Row | Structure (SMILES) | EC50
1 | CC(C)(C)c1nnc(N=NCc2cc(Br)ccc2O)n(N)c1=O [4-azanyl-3-[2-[(E)-(3-bromanyl-6-oxidanylidene-cyclohexa-2,4-dien-1-ylidene)methyl]hydrazinyl]-6-tert-butyl-1,2,4-triazin-5-one] | 19.9 µM
2 | COCc1cc(C2C(C(=O)c3ccco3)C(=O)C(=O)N2CCOCCO)ccc1O (centres undefined) [3-(furan-2-carbonyl)-4-hydroxy-1-[2-(2-hydroxyethoxy)ethyl]-2-[4-hydroxy-3-(methoxymethyl)phenyl]-2H-pyrrol-5-one] | > 80 µM
3 | CC(N=Nc1nc2ccccc2o1)c1cc2ccccc2cn1 (centres undefined) | 2.24 µM
4 | Oc1c(Cl)c(N=Cc2cccnc2)c(O)c2ccccc12 [MLS001195521] | 9.25 µM
5 | CC(=O)Oc1cccc2c(O)c3c(c(O)c12)CC=CC3OC(C)=O (centres undefined) [SMR001574207] | 51.6 µM
6 | Nn1cnnc1N=NCc1cc(Br)cc(Br)c1O | > 80 µM
7 | CCCOC1=CC(=O)C(C=NNC(=S)Nc2ccccc2[N+](=O)[O-])C=C1 (centres undefined) [1-(2-nitrophenyl)-3-[[(E)-(6-oxo-4-propoxy-1-cyclohexa-2,4-dienylidene)methyl]amino]thiourea] | 26.5 µM
8 | O=C1C(=C2C(=O)c3ccccc3C2=O)Nc2ccccc21 [MLS000071738] | 24.7 µM
9 | Cc1[nH]n(-c2ccccc2)c(=O)c1CN=Nc1nncc(-c2ccccc2)n1 [(4E)-5-methyl-2-phenyl-4-[[(5-phenyl-1,2,4-triazin-3-yl)hydrazo]methylidene]-3-pyrazolone] | 6.69 µM
